Results from the supplement of paper PMC10307832.

Tests used:
Experiment in all cases: relative viability (nuclei count vs DMSO), 5 days (fraction); higher = more cells survive
[1] = compound: N#CC[C@H](C1CCCC1)n1cc(-c2ncnc3[nH]ccc23)cn1 [Ruxolitinib] + Nc1ncn([C@H]2C[C@H](O)[C@@H](CO)O2)c(=O)n1 [Decitabine] (partner 2 µM)
Procedure, shortened: (§1)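 After 5 days of treatment, lung cancer cells in 1536-well plates were fixed and stained in a single step (final 0.05% Triton X-100, 1% formaldehyde, 1 ug/ml Hoechst) and their nuclei counted on 4× images. Treatment had been applied by pin tool the day after seeding as one drug alone or as a fixed anchor-drug dose with five library-drug doses (not always all listed) in √10 steps. Relative viability is the nuclei count of treated wells divided by that of vehicle wells, and values are medians of duplicate plates.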

[2] = compound: CS(=O)(=O)c1ccc(C(=O)Nc2ccc(Cl)c(-c3ccccn3)c2)c(Cl)c1 [Vismodegib] + Nc1nc2[nH]cc(CCc3ccc(C(=O)N[C@@H](CCC(=O)O)C(=O)O)cc3)c2c(=O)[nH]1 [Pemetrexed] (partner 0.2 µM)
Procedure, shortened: as §1

[3] = compound: CS(=O)(=O)c1ccc(-c2cnc(N)c(C(=O)Nc3ccccc3)n2)cc1 [VE-821] + COc1cc2c(Oc3ccc(NC(=O)C4(C(=O)Nc5ccc(F)cc5)CC4)cc3F)ccnc2cc1OCCCN1CCOCC1 [Foretinib] (partner 0.25 µM)
Procedure, shortened: as §1

[4] = compound: N#CC[C@H](C1CCCC1)n1cc(-c2ncnc3[nH]ccc23)cn1 [Ruxolitinib] + Cc1cc(Nc2cc(N3CCN(C)CC3)nc(Sc3ccc(NC(=O)C4CC4)cc3)n2)n[nH]1 [Tozasertib] (partner 0.1 µM)
Procedure, shortened: as §1

| Cell Line | relative viability ([1]; first compound 0.08 µM) | relative viability ([1]; first compound 0.253 µM) | relative viability ([1]; first compound 0.8 µM) | relative viability ([1]; first compound 2.53 µM) | relative viability ([1]; first compound 8 µM) | relative viability ([2]; first compound 0.08 µM) | relative viability ([2]; first compound 0.253 µM) | relative viability ([2]; first compound 0.8 µM) | relative viability ([2]; first compound 2.53 µM) | relative viability ([2]; first compound 8 µM) | relative viability ([3]; first compound 0.08 µM) | relative viability ([3]; first compound 0.253 µM) | relative viability ([3]; first compound 0.8 µM) | relative viability ([3]; first compound 2.53 µM) | relative viability ([3]; first compound 8 µM) | relative viability ([4]; first compound 0.08 µM) | relative viability ([4]; first compound 0.253 µM) | relative viability ([4]; first compound 0.8 µM) | relative viability ([4]; first compound 2.53 µM) | relative viability ([4]; first compound 8 µM) |
| --- | --- | --- | --- | --- | --- | --- | --- | --- | --- | --- | --- | --- | --- | --- | --- | --- | --- | --- | --- | --- |
| NCI-H358 | 0.226 | 0.202 | 0.213 | 0.169 | 0.194 | 0.18 | 0.183 | 0.174 | 0.172 | 0.181 | 0.687 | 0.598 | 0.591 | 0.896 | 0.624 | 0.102 | 0.0986 | 0.102 | 0.102 | 0.0752 |
| NCI-H23 | 0.311 | 0.337 | 0.359 | 0.275 | 0.305 | 0.7 | 0.539 | 0.569 | 0.639 | 0.65 | 1.19 | 1.13 | 0.889 | 0.688 | 0.39 | 0.434 | 0.418 | 0.437 | 0.401 | 0.301 |
| EMC-BAC-2 | 0.915 | 0.916 | 1.14 | 0.921 | 0.851 | 0.469 | 0.442 | 0.423 | 0.461 | 0.518 | 1.05 | 0.944 | 0.856 | 1.05 | 0.949 | 0.292 | 0.288 | 0.279 | 0.262 | 0.236 |
| NCI-H2009 | 0.361 | 0.375 | 0.364 | 0.369 | 0.317 | 1.02 | 1.03 | 1.03 | 0.941 | 0.965 | 1.34 | 1.26 | 1.1 | 1.28 | 1.23 | 0.781 | 0.754 | 0.853 | 0.717 | 0.578 |
| NCI-H460 | 0.451 | 0.408 | 0.576 | 0.28 | 0.388 | 0.0652 | 0.0637 | 0.0589 | 0.0651 | 0.0689 | 1.02 | 0.979 | 0.841 | 0.919 | 0.17 | – | 0.601 | 0.606 | 0.578 | 0.744 |
| 201T | 0.949 | 0.914 | 1 | 1.02 | 0.973 | 0.323 | 0.354 | 0.336 | 0.335 | 0.297 | 1.09 | 1.17 | 0.784 | 0.968 | 0.6 | 1.11 | 1.19 | 1.17 | 1.21 | 1.11 |
| NCI-H1993 | 0.582 | 0.53 | 0.595 | 0.534 | 0.59 | 0.559 | 0.583 | 0.564 | 0.68 | 0.63 | 0.84 | 0.736 | 0.595 | 0.737 | 0.724 | 0.585 | 0.618 | 0.643 | 0.631 | 0.551 |
| RERF-LC-KJ | 0.689 | 0.812 | 0.791 | 0.719 | 0.589 | 0.491 | 0.454 | 0.468 | 0.508 | 0.479 | 0.861 | 0.868 | 0.793 | 0.767 | 0.698 | 0.401 | 0.492 | 0.555 | 0.495 | 0.384 |
